From ChEMBL document CHEMBL1201862, “PubChem BioAssay data set” (2004)
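In this assay, cells in 96-well plates receive the compound at five concentrations for 48 hours. Endpoints are linearly interpolated between the surrounding concentrations. GI50 = concentration required for 50% inhibition of growth.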 The source made the active and inactive calls. No stated cut-off is given here; in the data, active = GI50 up to about 1.1 µM and inactive = higher.

Columns and labels:
Assay in all cases: NCI-60 cell line screen, 48 h
786-0 = test system: 786-0
A498 = test system: A498
A549 = test system: A549
ACHN = test system: ACHN
CAKI-1 = test system: CAKI-1
CCRF-CEM = test system: CCRF-CEM
COLO 205 = test system: COLO 205
DLD-1 = test system: DLD-1
DMS-114 = test system: DMS-114
DMS-273 = test system: DMS-273
EKVX = test system: EKVX
HCC 2998 = test system: HCC 2998
HCT-116 = test system: HCT-116
HCT-15 = test system: HCT-15
HL-60 = test system: HL-60
HOP-18 = test system: HOP-18
HOP-62 = test system: HOP-62
HOP-92 = test system: HOP-92
HT-29 = test system: HT-29
IGROV-1 = test system: IGROV-1
K562 = test system: K562
KM-20L2 = test system: KM-20L2
KM12 = test system: KM12
LOX IMVI = test system: LOX IMVI
LXFL 529 = test system: LXFL 529
M14 = test system: M14
MOLT-4 = test system: MOLT-4
Malme-3M = test system: Malme-3M
NCI-H226 = test system: NCI-H226
NCI-H23 = test system: NCI-H23
NCI-H460 = test system: NCI-H460
NCI-H522 = test system: NCI-H522
OVCAR-3 = test system: OVCAR-3
OVCAR-4 = test system: OVCAR-4
OVCAR-5 = test system: OVCAR-5
OVCAR-8 = test system: OVCAR-8
RPMI-8226 = test system: RPMI-8226
RXF 393 = test system: RXF 393
RXF 631 = test system: RXF 631
SF-268 = test system: SF-268
SF-295 = test system: SF-295
SF-539 = test system: SF-539
SK-MEL-28 = test system: SK-MEL-28
SK-MEL-2 = test system: SK-MEL-2
SK-MEL-5 = test system: SK-MEL-5
SK-OV-3 = test system: SK-OV-3
SN12C = test system: SN12C
SNB-19 = test system: SNB-19
SNB-75 = test system: SNB-75
SNB-78 = test system: SNB-78
SR = test system: SR
SW-620 = test system: SW-620
TK-10 = test system: TK-10
U-251 = test system: U-251
UACC-257 = test system: UACC-257
UACC-62 = test system: UACC-62
UO-31 = test system: UO-31
XF498 = test system: XF498
M19-MEL = test system: M19-MEL

CCCC1C[C@H]2CCCCN2[C@H]2CCCN12 (stereo partly drawn)
GI50 (786-0): > 100 µM (inactive) | GI50 (A498): > 100 µM (inactive) | GI50 (A549): > 87.1 µM (inactive) | GI50 (ACHN): > 100 µM (inactive) | GI50 (CAKI-1): > 100 µM (inactive) | GI50 (CCRF-CEM): > 45.9 µM (inactive) | GI50 (COLO 205): > 47.4 µM (inactive) | GI50 (DLD-1): > 50.4 µM (inactive) | GI50 (DMS-114): > 51.5 µM (inactive) | GI50 (DMS-273): > 61.9 µM (inactive) | GI50 (EKVX): > 100 µM (inactive) | GI50 (HCC 2998): > 100 µM (inactive) | GI50 (HCT-116): > 45.2 µM (inactive) | GI50 (HCT-15): > 46.7 µM | GI50 (HL-60): > 37.8 µM (inactive) | GI50 (HOP-18): > 100 µM (inactive) | GI50 (HOP-62): > 100 µM (inactive) | GI50 (HOP-92): > 100 µM (inactive) | GI50 (HT-29): > 100 µM (inactive) | GI50 (IGROV-1): > 100 µM (inactive) | GI50 (K562): > 50.2 µM (inactive) | GI50 (KM-20L2): > 88.3 µM (inactive) | GI50 (KM12): > 100 µM (inactive) | GI50 (LOX IMVI): > 39.4 µM (inactive) | GI50 (LXFL 529): > 69.3 µM (inactive) | GI50 (M14): > 100 µM (inactive) | GI50 (MOLT-4): > 100 µM (inactive) | GI50 (Malme-3M): > 100 µM (inactive) | GI50 (NCI-H226): > 100 µM (inactive) | GI50 (NCI-H23): > 100 µM (inactive) | GI50 (NCI-H460): > 66.4 µM (inactive) | GI50 (NCI-H522): > 100 µM (inactive) | GI50 (OVCAR-3): > 100 µM (inactive) | GI50 (OVCAR-4): > 100 µM (inactive) | GI50 (OVCAR-5): > 100 µM (inactive) | GI50 (OVCAR-8): > 100 µM (inactive) | GI50 (RPMI-8226): > 43.4 µM (inactive) | GI50 (RXF 393): > 48.2 µM (inactive) | GI50 (RXF 631): > 100 µM (inactive) | GI50 (SF-268): > 100 µM (inactive) | GI50 (SF-295): > 100 µM (inactive) | GI50 (SF-539): > 100 µM (inactive) | GI50 (SK-MEL-28): > 100 µM (inactive) | GI50 (SK-MEL-2): > 100 µM (inactive) | GI50 (SK-MEL-5): > 100 µM (inactive) | GI50 (SK-OV-3): > 100 µM (inactive) | GI50 (SN12C): > 100 µM (inactive) | GI50 (SNB-19): > 100 µM (inactive) | GI50 (SNB-75): > 100 µM (inactive) | GI50 (SNB-78): > 100 µM (inactive) | GI50 (SR): > 40.6 µM (inactive) | GI50 (SW-620): > 37.8 µM (inactive) | GI50 (TK-10): > 100 µM (inactive) | GI50 (U-251): > 44.4 µM (inactive) | GI50 (UACC-257): > 100 µM (inactive) | GI50 (UACC-62): > 100 µM (inactive) | GI50 (UO-31): > 100 µM (inactive) | GI50 (XF498): > 100 µM (inactive)

Cc1cc2c3c(coc3c1-c1c(C)cc3c4c(coc14)C(=O)C(O)=C3C(C)C)C(=O)C(O)=C2C(C)C
GI50 (786-0): 10.1 µM (inactive) | GI50 (A498): 12.2 µM (inactive) | GI50 (A549): 4.05 µM (inactive) | GI50 (ACHN): 3.51 µM (inactive) | GI50 (CAKI-1): 12.8 µM (inactive) | GI50 (CCRF-CEM): 3.58 µM (inactive) | GI50 (COLO 205): 2.41 µM (inactive) | GI50 (DLD-1): 4.6 µM (inactive) | GI50 (DMS-114): 2.63 µM (inactive) | GI50 (DMS-273): 4 µM (inactive) | GI50 (EKVX): 2.28 µM (inactive) | GI50 (HCC 2998): 3.68 µM (inactive) | GI50 (HCT-116): 3.54 µM (inactive) | GI50 (HCT-15): 3.94 µM | GI50 (HL-60): 3.42 µM (inactive) | GI50 (HOP-62): 11.5 µM (inactive) | GI50 (HOP-92): 2.62 µM (inactive) | GI50 (HT-29): 3.94 µM (inactive) | GI50 (IGROV-1): 3.99 µM (inactive) | GI50 (K562): 3.26 µM (inactive) | GI50 (KM-20L2): 6.04 µM (inactive) | GI50 (KM12): 4.3 µM (inactive) | GI50 (LOX IMVI): 5.7 µM (inactive) | GI50 (LXFL 529): 3.77 µM (inactive) | GI50 (M14): 11.7 µM (inactive) | GI50 (M19-MEL): 7.03 µM (inactive) | GI50 (MOLT-4): 3.66 µM (inactive) | GI50 (Malme-3M): 15.6 µM (inactive) | GI50 (NCI-H226): 10.1 µM (inactive) | GI50 (NCI-H23): 3.53 µM (inactive) | GI50 (NCI-H460): 4.37 µM (inactive) | GI50 (NCI-H522): 5.92 µM (inactive) | GI50 (OVCAR-3): 5.45 µM (inactive) | GI50 (OVCAR-4): 6.79 µM (inactive) | GI50 (OVCAR-5): 17.9 µM (inactive) | GI50 (OVCAR-8): 4.72 µM (inactive) | GI50 (RPMI-8226): 4.68 µM (inactive) | GI50 (RXF 393): 10.3 µM (inactive) | GI50 (RXF 631): 8.71 µM (inactive) | GI50 (SF-268): 5.08 µM (inactive) | GI50 (SF-295): 5.37 µM (inactive) | GI50 (SF-539): 3.44 µM (inactive) | GI50 (SK-MEL-28): 10.1 µM (inactive) | GI50 (SK-MEL-2): 4.74 µM (inactive) | GI50 (SK-MEL-5): 15.1 µM (inactive) | GI50 (SK-OV-3): 19.2 µM (inactive) | GI50 (SN12C): 10.1 µM (inactive) | GI50 (SNB-19): 4.35 µM (inactive) | GI50 (SNB-75): 10.9 µM (inactive) | GI50 (SNB-78): 9.44 µM (inactive) | GI50 (SW-620): 5.2 µM (inactive) | GI50 (TK-10): 14.5 µM (inactive) | GI50 (U-251): 3.66 µM (inactive) | GI50 (UACC-257): 14.3 µM (inactive) | GI50 (UACC-62): 3.73 µM (inactive) | GI50 (UO-31): 16.6 µM (inactive) | GI50 (XF498): 4.79 µM (inactive)

O=C(O)CCC1CCc2cccc(O)c2C1=O (stereo not drawn)
GI50 (A498): > 100 µM (inactive) | GI50 (ACHN): > 100 µM (inactive) | GI50 (CCRF-CEM): > 100 µM (inactive) | GI50 (COLO 205): > 100 µM (inactive) | GI50 (DMS-114): > 100 µM (inactive) | GI50 (DMS-273): > 100 µM (inactive) | GI50 (HCT-15): > 100 µM | GI50 (HL-60): > 100 µM (inactive) | GI50 (HOP-18): > 100 µM (inactive) | GI50 (HOP-92): > 100 µM (inactive) | GI50 (IGROV-1): > 100 µM (inactive) | GI50 (K562): > 100 µM (inactive) | GI50 (KM-20L2): > 100 µM (inactive) | GI50 (LOX IMVI): > 100 µM (inactive) | GI50 (LXFL 529): > 100 µM (inactive) | GI50 (M14): > 100 µM (inactive) | GI50 (M19-MEL): > 100 µM (inactive) | GI50 (MOLT-4): > 100 µM (inactive) | GI50 (NCI-H23): > 100 µM (inactive) | GI50 (NCI-H460): > 100 µM (inactive) | GI50 (OVCAR-4): > 100 µM (inactive) | GI50 (RPMI-8226): > 100 µM (inactive) | GI50 (RXF 393): > 100 µM (inactive) | GI50 (RXF 631): > 100 µM (inactive) | GI50 (SF-539): > 100 µM (inactive) | GI50 (SK-MEL-28): > 100 µM (inactive) | GI50 (SK-OV-3): > 100 µM (inactive) | GI50 (SN12C): > 100 µM (inactive) | GI50 (SNB-19): > 100 µM (inactive) | GI50 (SNB-78): > 100 µM (inactive) | GI50 (U-251): > 100 µM (inactive) | GI50 (UACC-62): > 100 µM (inactive) | GI50 (XF498): > 100 µM (inactive)
